Measurements from ChEMBL document CHEMBL1136002 (J Med Chem, 2002).

Assays:
[1] = target: T1, Sodium-dependent dopamine transporter (Homo sapiens, UniProt Q01959); assay: Binding affinity towards dopamine transporter (DAT) by using [125I]RTI-55 radioligand
[2] = target: T2, Sodium-dependent serotonin transporter (Homo sapiens, UniProt P31645); assay: Binding affinity for serotonin transporter (SERT) using [125I]RTI-55
Target sequence in this assay (P31645 whole entry): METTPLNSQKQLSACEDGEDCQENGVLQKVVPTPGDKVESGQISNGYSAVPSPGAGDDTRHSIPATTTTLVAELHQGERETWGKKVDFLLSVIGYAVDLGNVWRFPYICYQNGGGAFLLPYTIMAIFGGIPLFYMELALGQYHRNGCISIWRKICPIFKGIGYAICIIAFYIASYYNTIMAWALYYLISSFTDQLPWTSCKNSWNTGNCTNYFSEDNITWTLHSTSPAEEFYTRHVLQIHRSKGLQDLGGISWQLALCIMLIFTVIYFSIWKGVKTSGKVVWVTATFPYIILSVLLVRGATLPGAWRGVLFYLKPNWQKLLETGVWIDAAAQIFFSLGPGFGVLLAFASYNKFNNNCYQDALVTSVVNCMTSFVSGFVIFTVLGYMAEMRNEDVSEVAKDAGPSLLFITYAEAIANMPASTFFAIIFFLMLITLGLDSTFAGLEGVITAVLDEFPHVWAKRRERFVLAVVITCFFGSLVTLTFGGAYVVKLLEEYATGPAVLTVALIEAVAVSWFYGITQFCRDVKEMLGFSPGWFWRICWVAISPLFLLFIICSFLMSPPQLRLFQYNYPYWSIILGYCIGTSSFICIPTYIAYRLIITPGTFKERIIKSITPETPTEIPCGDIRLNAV

[3] = target: T2, Sodium-dependent serotonin transporter; assay: Ratio of Ki value towards Serotonin transporter (SERT) to that of Dopamine transporter (DAT)
Target sequence in this assay (P31645 whole entry, looked up): as the sequence (P31645 whole entry) above

[4] = target: Sodium-dependent noradrenaline transporter (Homo sapiens, UniProt P23975); assay: Compound was tested for the inhibition of norepinephrine (NE) reuptake; assay type: functional
[5] = target: T2, Sodium-dependent serotonin transporter; assay: Compound was tested for the inhibition of serotonin (5-HT) reuptake; assay type: functional
Target sequence in this assay (P31645 whole entry): as above

[6] = target: T1, Sodium-dependent dopamine transporter; assay: Compound was tested for the inhibition of dopamine (DA) reuptake; assay type: functional

T1 sequence (Q01959 whole entry): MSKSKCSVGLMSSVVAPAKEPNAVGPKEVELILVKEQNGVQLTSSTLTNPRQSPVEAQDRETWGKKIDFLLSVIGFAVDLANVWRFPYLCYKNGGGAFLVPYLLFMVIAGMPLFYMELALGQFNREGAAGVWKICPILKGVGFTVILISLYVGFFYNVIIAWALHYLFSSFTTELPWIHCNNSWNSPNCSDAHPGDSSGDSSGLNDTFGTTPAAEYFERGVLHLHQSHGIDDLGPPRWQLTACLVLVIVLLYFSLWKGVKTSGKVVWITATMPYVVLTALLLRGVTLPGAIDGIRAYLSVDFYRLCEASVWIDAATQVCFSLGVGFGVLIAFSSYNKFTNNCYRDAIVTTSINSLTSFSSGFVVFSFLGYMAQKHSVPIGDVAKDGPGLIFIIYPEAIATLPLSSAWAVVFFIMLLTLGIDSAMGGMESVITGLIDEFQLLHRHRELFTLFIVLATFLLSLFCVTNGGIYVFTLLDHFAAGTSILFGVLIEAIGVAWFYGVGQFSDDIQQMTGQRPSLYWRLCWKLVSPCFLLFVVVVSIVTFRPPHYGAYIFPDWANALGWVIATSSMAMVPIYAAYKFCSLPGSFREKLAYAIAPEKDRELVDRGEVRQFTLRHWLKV
Chain of Sodium-dependent noradrenaline transporter (P23975 whole entry): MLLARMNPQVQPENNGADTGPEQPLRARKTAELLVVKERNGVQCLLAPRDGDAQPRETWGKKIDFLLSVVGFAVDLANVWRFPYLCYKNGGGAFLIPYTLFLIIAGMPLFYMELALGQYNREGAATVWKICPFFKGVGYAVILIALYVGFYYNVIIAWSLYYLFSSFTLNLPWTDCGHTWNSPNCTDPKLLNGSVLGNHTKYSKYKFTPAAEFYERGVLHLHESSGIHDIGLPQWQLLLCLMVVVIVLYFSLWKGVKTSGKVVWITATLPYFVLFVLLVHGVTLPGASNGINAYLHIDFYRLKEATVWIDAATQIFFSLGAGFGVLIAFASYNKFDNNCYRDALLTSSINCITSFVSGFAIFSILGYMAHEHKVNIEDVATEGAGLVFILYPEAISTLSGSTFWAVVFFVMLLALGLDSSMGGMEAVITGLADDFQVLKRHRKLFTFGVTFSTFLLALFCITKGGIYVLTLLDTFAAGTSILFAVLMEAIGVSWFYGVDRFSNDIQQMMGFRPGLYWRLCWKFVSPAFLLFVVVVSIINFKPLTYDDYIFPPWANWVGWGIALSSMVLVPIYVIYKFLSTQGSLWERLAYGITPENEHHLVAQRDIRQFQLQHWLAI

Fc1ccc(C(OCCC2CCN(Cc3cccc4ccccc34)CC2)c2ccc(F)cc2)cc1
Ki [1]: 0.016 µM | Ki [2]: 0.37 µM | Ratio [3]: 23

Fc1ccc(C(OCCC2CCN(Cc3cc4ccccc4[nH]3)CC2)c2ccc(F)cc2)cc1
Ki [2]: 0.088 µM | Ratio [3]: 121

Fc1ccc(C(OCCC2CCN(CCCc3ccccc3)CC2)c2ccc(F)cc2)cc1
Ki [1]: 0.0011 µM | Ki [2]: 0.068 µM | Ratio [3]: 65

Fc1ccc(C(OCCC2CCN(Cc3cc4ccccc4s3)CC2)c2ccc(F)cc2)cc1
IC50 [4]: 0.26 µM | IC50 [5]: 1.04 µM | IC50 [6]: 0.0119 µM | Ki [2]: 0.246 µM | Ratio [3]: 153

Fc1ccc(C(OCCC2CCN(C/C=C/c3ccco3)CC2)c2ccc(F)cc2)cc1
Ki [1]: 0.00099 µM | Ki [2]: 0.041 µM | Ratio [3]: 41

Fc1ccc(C(OCCC2CCN(C/C=C/c3ccccc3)CC2)c2ccc(F)cc2)cc1
Ki [1]: 0.00045 µM | Ki [2]: 0.047 µM | Ratio [3]: 104

Fc1ccc(C(OCCC2CCN(Cc3cc4ccccc4o3)CC2)c2ccc(F)cc2)cc1
Ki [2]: 0.085 µM | Ratio [3]: 84

Fc1ccc(C(OCCC2CCN(CC#Cc3ccccc3)CC2)c2ccc(F)cc2)cc1
Ki [2]: 0.164 µM | Ratio [3]: 31

Fc1ccc(C(OCCC2CCN(C/C=C/c3cccs3)CC2)c2ccc(F)cc2)cc1
Ki [1]: 0.0013 µM | Ki [2]: 0.045 µM | Ratio [3]: 35

Fc1ccc(C(OCCC2CCN(Cc3ccc4ccccc4c3)CC2)c2ccc(F)cc2)cc1
IC50 [4]: 0.093 µM | IC50 [5]: 0.277 µM | IC50 [6]: 0.0072 µM | Ki [2]: 0.229 µM | Ratio [3]: 323
